# Test results reported in patent US11173124B2, “Oral delivery of GLP-1 peptide analogs” (MEDIMMUNE LIMITED, priority 2017, dated 2021).
# Starred links: 1 amine or outer side, 2 acyl side, 3 side chain; linkers in the order of their positions; H or OH if unused. Non-standard residues stand in square brackets, D forms with d. Residues, ends and D or L forms follow the SMILES beside them. Groups on a side chain read outwards from the residue. Primed or numbered codes have the meaning given here. ξ: configuration not given here. *: point of attachment. γGlu = O=C(O)[C@H](CCC(=O)[*:2])N[*:1]; αMeF = C[C@](N)(Cc1ccccc1)C(=O)O; ξαMeF = CC(N)(Cc1ccccc1)C(=O)O; αMeK = C[C@](N)(CCCCN)C(=O)O; Lauroyl = CCCCCCCCCCCC(=O)*; ξαMeK = CC(N)(CCCCN)C(=O)O; PEG2′ = not defined here; ξαMeS = CC(N)(CO)C(=O)O; AEEA = NCCOCCOCC(=O)O; Aib = CC(C)(N)C(=O)O
# Key:
# Caco-2 cells = assay: Caco-2 study, Permeability (%) of lipidated peptides (Example 3); type: in vitro ADME, human; settings: 0.1 mg/mL peptide
# Text: The Caco-2 cell line is a continuous cell line of heterogeneous human epithelial colorectal adenocarcinoma cells, which when cultured under specific conditions, become differentiated and polarized such that their phenotype, morphologically and functionally, resembles the enterocytes lining the small intestine. Caco-2 cells express tight junctions, microvilli, and a number of enzymes and transporters that are characteristic of such enterocytes. Caco-2 cells are most commonly used as a tight junction monolayer that provides a physical and biochemical barrier to the passage of drugs and thus serves as an in vitro model of the human small intestinal mucosa to predict the absorption of orally administered drugs. Caco-2 permeability assays were performed by Cyprotex US, LLC (MA, USA) to assess the efficacy of different permeation enhancers. Caco-2 cells were grown on Transwell filters until a transepithelial electric resistance of ˜1000 ohms/cm^2 was achieved. The cells were incubated for three hours with media containing test samples on the apical (top) side of the cell layer, and with blank media on the basolateral (lower) side of the cell layer. Media from the apical and basolateral sides was collected separately after three hours and evaluated for the amount of peptide present on each side. Table 2 gives the permeability coefficient (Papp) of the various test samples, which include the SEQ ID NO:3 GLP-1 peptide in the presence of different excipients.
# A following Caco-2 study was performed to evaluate the permeability of different peptides in the presence of various permeation enhancers. Permeability (%) was calculated by dividing the cumulative amount of molecules transported with the original loading amount. Concentrations of peptides in starting sample and apical and basal solutions after incubation for pre-determined periods were analyzed by HPLC. Sodium chenodeoxycholate at 25 mg/mL effected the highest permeability of each tested peptide (Table 4).
# physchem = assay: physchem
# Text: A known amount of the permeation enhancer, the peptide, or both were combined with increasing amounts of buffer until the permeation enhancer and/or the peptide were completely solubilized.
# [1] = Canine site of absorption study, IntelliCap, SEQ ID NO:5 solution formulations (Example 11); type: in vivo, Beagle dogs; settings: for bioavailability / AUC(0-t) / Cmax / Tmax: dog; for bioavailability: plasma; for AUC(0-t) / Cmax / Tmax: in vivo
# Text: The IntelliCap® system, an electronic oral drug delivery and monitoring device, was used to determine regional absorption for solution formulations. In the form of a capsule, the IntelliCap® incorporates a microprocessor, battery, pH sensor, temperature sensor, radio frequency (RF) wireless transceiver, fluid pump, and drug reservoir. The IntelliCap® system can determine the drug's position in the gastrointestinal (GI) tract by a pH monitoring sensor in the capsule, thereby eliminating the need for in vivo imaging. This system was employed to assess the site of absorption of GLP-1 peptide analogs in the GI tract following oral delivery to canines (Beagle dogs). Solution formulations without permeation enhancer excipients were used as intravenous (IV) and subcutaneous (SC) controls in the study. In brief, solution formulations were prepared and transferred to the IntelliCap® capsule which was dosed to canines, wherein the formulation was released at a specific site in the GI tract.
# An additional site of absorption study was performed to evaluate the best site of absorption of the SEQ ID NO:5 GLP-1 peptide analog solution formulations after oral administration of IntelliCap capsules to canines (Beagle dogs). Delivery of the SEQ ID NO:5 peptide to the proximal small bowel (after pylorus passage), distal small bowel (before ileocecal passage), and proximal colon (after ileocecal passage) were studied.
# [2] = 5.0 mg/mL Sodium Chenodeoxycholate
# [3] = 25 mg/mL Sodium Chenodeoxycholate
# [4] = Intravenous, 0.03 mg/kg, 0.3 mg/mL peptide in 50 mM Tris, 150 mM Mannitol, 0.02% PS80, pH 8.0
# [5] = IntelliCap, Distal small bowel, 0.81 mg/kg, 12 mg/mL peptide, 25 mg/mL Na CDC, 12.5 mg/mL PG, pH 8.0
# [6] = IntelliCap, Proximal colon, 0.85 mg/kg, 12 mg/mL peptide, 25 mg/mL Na CDC, 12.5 mg/mL PG, pH 8.0
# [7] = IntelliCap, Proximal small bowel, 0.86 mg/kg, 12 mg/mL peptide, 25 mg/mL Na CDC, 12.5 mg/mL PG, pH 8.0
# [8] = sc, Subcutaneous, 0.03 mg/kg, 0.3 mg/mL peptide in 50 mM Tris, 150 mM Mannitol, 0.02% PS80, pH 8.0
compound,measurement,setting,value
"CCCCCCCCCCCC(=O)N[C@@H](CCC(=O)NCCOCCOCC(=O)NCCOCCOCC(=O)NCCCC[C@H](NC(=O)[C@H](C)NC(=O)[C@@H](NC(=O)[C@H](Cc1ccccc1)NC(=O)[C@H](CCC(=O)O)NC(=O)C(C)(CCCCN)NC(=O)[C@H](C)NC(=O)[C@H](C)NC(=O)[C@H](CCC(=O)O)NC(=O)CNC(=O)[C@H](CCC(=O)O)NC(=O)[C@H](CCCCNC(=O)COCCOCCNC(=O)COCCOCCNC(=O)CC[C@H](NC(=O)CCCCCCCCCCC)C(=O)O)NC(=O)[C@H](Cc1ccc(O)cc1)NC(=O)[C@H](CO)NC(=O)C(C)(CO)NC(=O)[C@@H](NC(=O)[C@H](CC(=O)O)NC(=O)[C@H](CO)NC(=O)[C@@H](NC(=O)C(C)(Cc1ccccc1)NC(=O)[C@H](CO)NC(=O)CNC(=O)[C@H](CCC(=O)O)NC(=O)C(C)(C)NC(=O)[C@@H](N)Cc1c[nH]cn1)[C@@H](C)O)C(C)C)[C@@H](C)CC)C(=O)N[C@H](C(=O)N[C@H](C(=O)N[C@@H](CCC(=O)O)C(=O)NCC(=O)NCC(N)=O)C(C)C)C(C)C)C(=O)O (some centres unmarked) [SEQ ID NO: 9, Free-H-[AIB]-EGS-[αMePhe]-TSDV-[αMeSer]-SYK[(PEG2)2-γE-Lauroyl]-EGEAA-[αMeLys]-EFIAK[(PEG2)2-γE-Lauroyl]-VVEGG-amide] (H-H[Aib]EGS[ξαMeF]TSDV[ξαMeS]SYK([AEEA-AEEA-γGlu-Lauroyl])EGEAA[ξαMeK]EFIAK([AEEA-AEEA-γGlu-Lauroyl])VVEGG-NH2)",Permeability (%),Caco-2 cells; [2],3.1%
same,Permeability (%),Caco-2 cells; [3],13.9%
CCCOC(=O)c1cc(O)c(O)c(O)c1 [Propyl Gallate],solubility,"physchem; pH 5, aqueous buffer, thermodynamic from solid",3000 µg/mL
same,solubility,"physchem; pH 6, aqueous buffer, thermodynamic from solid",3000 µg/mL
same,solubility,physchem; pH 7,3300 µg/mL
same,solubility as a function of pH (in words),physchem; pH 7.5,low solubility at pH 7.5 and above
same,solubility,"physchem; pH 7.5, aqueous buffer, thermodynamic from solid",< 250 µg/mL
same,solubility,"physchem; pH 8, aqueous buffer, thermodynamic from solid",< 250 µg/mL
same,solubility,"physchem; pH 9, aqueous buffer, thermodynamic from solid",< 250 µg/mL
"CCCCCCCCCCCC(=O)N[C@@H](CCC(=O)NCCOCCOCC(=O)NCCOCCOCC(=O)NCCCC[C@H](NC(=O)[C@H](C)NC(=O)[C@@H](NC(=O)[C@H](Cc1ccccc1)NC(=O)[C@H](CCC(=O)O)NC(=O)C(C)(CCCCN)NC(=O)[C@H](C)NC(=O)[C@H](C)NC(=O)[C@H](CCC(=O)O)NC(=O)CNC(=O)[C@H](CCC(=O)O)NC(=O)[C@H](CC(C)C)NC(=O)[C@H](Cc1ccc(O)cc1)NC(=O)[C@H](CCCCNC(=O)COCCOCCNC(=O)COCCOCCNC(=O)CC[C@H](NC(=O)CCCCCCCCCCC)C(=O)O)NC(=O)[C@H](CO)NC(=O)[C@@H](NC(=O)[C@H](CC(=O)O)NC(=O)[C@H](CO)NC(=O)[C@@H](NC(=O)C(C)(Cc1ccccc1)NC(=O)[C@H](CO)NC(=O)CNC(=O)[C@H](CCC(=O)O)NC(=O)C(C)(C)NC(=O)[C@@H](N)Cc1c[nH]cn1)[C@@H](C)O)C(C)C)[C@@H](C)CC)C(=O)N[C@H](C(=O)N[C@H](C(=O)N[C@@H](CCC(=O)O)C(=O)NCC(=O)NCC(N)=O)C(C)C)C(C)C)C(=O)O (some centres unmarked) [SEQ ID NO: 5, Free-H-[AIB]-EGS-[αMePhe]-TSDVSK[(PEG2)2-γE-Lauroyl]-YLEGEAA-[αMeLys]-EFIAK[(PEG2)2-γE-Lauroyl]-VVEGG-amide]",Permeability (%),Caco-2 cells; [2],3.2%
same,Permeability (%),Caco-2 cells; [3],10.4%
same,bioavailability,"[1]; Beagle, po, IntelliCap, Distal small bowel, 0.81 mg/kg, 12 mg/mL peptide, 25 mg/mL Na CDC, 12.5 mg/mL PG, pH 8.0",0.3%
same,bioavailability,"[1]; Beagle, po, IntelliCap, Proximal colon, 0.85 mg/kg, 12 mg/mL peptide, 25 mg/mL Na CDC, 12.5 mg/mL PG, pH 8.0",2.6%
same,bioavailability,"[1]; Beagle, po, IntelliCap, Proximal small bowel, 0.86 mg/kg, 12 mg/mL peptide, 25 mg/mL Na CDC, 12.5 mg/mL PG, pH 8.0",0.5%
same,F,[1]; [4],100%
same,bioavailability,"[1]; beagle, sc, Subcutaneous, 0.03 mg/kg, 0.3 mg/mL peptide in 50 mM Tris, 150 mM Mannitol, 0.02% PS80, pH 8.0",87%
same,AUC(0-t),[1]; [5],166 ng·h/mL
same,Cmax,[1]; [5],51 ng/mL
same,Tmax,[1]; [5],15 min
same,AUC(0-t),[1]; [6],1500 ng·h/mL
same,Cmax,[1]; [6],301 ng/mL
same,Tmax,[1]; [6],15 min
same,AUC(0-t),[1]; [7],297 ng·h/mL
same,Cmax,[1]; [7],75 ng/mL
same,Tmax,[1]; [7],15 min
same,AUC(0-t),[1]; [4],2000 ng·h/mL
same,Cmax,[1]; [4],449 ng/mL
same,Tmax,[1]; [4],15 min
same,AUC(0-t),[1]; [8],1770 ng·h/mL
same,Cmax,[1]; [8],144 ng/mL
same,Tmax,[1]; [8],240 min
C[C@H](CCC(=O)[O-])[C@H]1CC[C@H]2[C@@H]3[C@H](O)C[C@@H]4C[C@H](O)CC[C@]4(C)[C@H]3CC[C@]12C.[Na+] [Sodium Chenodeoxycholate],solubility,physchem; pH 5.5,>200000 µg/mL
"CC[C@H](C)[C@H](NC(=O)[C@H](Cc1ccccc1)NC(=O)[C@H](CCC(=O)O)NC(=O)[C@H](CCCCNC(=O)COCCOCCNC(=O)COCCOCCNC(=O)CC[C@H](NC(=O)CCCCCCCCCCCCCCCCC(=O)O)C(=O)O)NC(=O)[C@H](C)NC(=O)[C@H](C)NC(=O)[C@H](CCC(=O)O)NC(=O)CNC(=O)[C@H](CCC(=O)O)NC(=O)[C@H](CC(C)C)NC(=O)C(C)(Cc1ccccc1)NC(=O)[C@H](CO)NC(=O)C(C)(CO)NC(=O)[C@@H](NC(=O)[C@H](CC(=O)O)NC(=O)[C@H](CO)NC(=O)[C@@H](NC(=O)C(C)(Cc1ccccc1)NC(=O)[C@H](CO)NC(=O)CNC(=O)[C@H](CCC(=O)O)NC(=O)C(C)(C)NC(=O)[C@@H](N)Cc1c[nH]cn1)[C@@H](C)O)C(C)C)C(=O)N[C@@H](C)C(=O)NC(C)(Cc1ccccc1)C(=O)N[C@H](C(=O)N[C@H](C(=O)NC(C)(CCCCN)C(=O)NCC(=O)NCC(N)=O)C(C)C)C(C)C (stereo partly drawn) [SEQ ID NO: 4, Free-H-[AIB]-EGS-[αMePhe]-TSDV-[αMeSer]-S-[αMePhe]-LEGEAAK[(PEG2)2-γE-Stearate]-EFIA-[αMePhe]-VV-[αMeLys]-GG-amide]",Permeability (%),Caco-2 cells; [2],0%
same,Permeability (%),Caco-2 cells; [3],14.3%
CCCCCCCCCCCC(=O)N[C@@H](CCC(=O)NCCOCCOCC(=O)NCCOCCOCC(=O)NCCCC[C@H](NC(=O)[C@H](CC(=O)O)NC(=O)[C@H](CO)NC(=O)[C@@H](NC(=O)C(C)(Cc1ccccc1)NC(=O)[C@H](CO)NC(=O)CNC(=O)[C@H](CCC(=O)O)NC(=O)C(C)(C)NC(=O)[C@@H](N)Cc1c[nH]cn1)[C@@H](C)O)C(=O)N[C@@H](CO)C(=O)N[C@@H](CO)C(=O)N[C@@H](Cc1ccc(O)cc1)C(=O)N[C@@H](CC(C)C)C(=O)N[C@@H](CCC(=O)O)C(=O)NCC(=O)N[C@@H](CCC(=O)O)C(=O)N[C@@H](C)C(=O)N[C@@H](C)C(=O)NC(C)(CCCCN)C(=O)N[C@@H](CCC(=O)O)C(=O)N[C@@H](Cc1ccccc1)C(=O)N[C@H](C(=O)N[C@@H](CCCCNC(=O)COCCOCCNC(=O)COCCOCCNC(=O)CC[C@H](NC(=O)CCCCCCCCCCC)C(=O)O)C(=O)N[C@@H](Cc1c[nH]c2ccccc12)C(=O)N[C@H](C(=O)N[C@H](C(=O)N[C@@H](CCC(=O)O)C(=O)NCC(=O)NCC(N)=O)C(C)C)C(C)C)[C@@H](C)CC)C(=O)O (some centres unmarked) [SEQ ID NO: 8] (H-H[Aib]EGS[ξαMeF]TSDK([AEEA-AEEA-γGlu-Lauroyl])SSYLEGEAA[ξαMeK]EFIK([AEEA-AEEA-γGlu-Lauroyl])WVVEGG-NH2),Permeability (%),Caco-2 cells; [2],1.7%
same,Permeability (%),Caco-2 cells; [3],11.6%
Free-H-[AIB]-EGS-[αMePhe]-TSDVSK[(PEG2)2-γE-Lauroyl]-YLEGEAA-[αMeLys]-EFIAWK[(PEG2)2-γE-Lauroyl]-VEGG-amide (H-H[Aib]EGS[αMeF]TSDVSK([PEG2′-PEG2′-γGlu-Lauroyl])YLEGEAA[αMeK]EFIAWK([PEG2′-PEG2′-γGlu-Lauroyl])VEGG-NH2) [SEQ ID NO: 7],Permeability (%),Caco-2 cells; [2],2.1%
same,Permeability (%),Caco-2 cells; [3],10.3%
